Test results from patent publication US11026972B2, “Methods for generating macrophages with enhanced cancer phagocytosis” (Georgia State University Research Foundation, Inc., priority 2016, dated 2021).

B1: IL-6: recombinant murine cytokine, PeproTech (protein, UniProt P08505 25-211, looked up)
Interleukin-6: FPTSQVRRGDFTEDTTPNRPVYTTSQVGGLITHVLWEIVEMRKELCNGNSDCMNNDDALAENNLKLPEIQRNDGCYQTGYNQEICLLKISSGLLEYHSYLEYMKNNLKDNKKDKARVLQRDTETLIHIFNQEVKDLHKIVLPTPISNALLTDKLESQKEWLRTKTIQFILKSLEEFLKVTLRSTRQT

Key:
[1] = test system: PEMs; assay: Activated PEM phagocytosis toward RBCs in the presence of antibodies/inhibitors against phagocytic receptors; format: cell-based, mouse; conditions: antibodies 10 μg/mL; BLT1 5 μM; laminarin 100 μg/mL; heparin 40 U/mL
Protocol: FIGS. 6A-6D include data related to our investigation of possible phagocytic receptors on macrophages for phagocytosing healthy self-cells. […] PEMs, with or without (ctl.) treatment with LPS, IL-17, IL-6, or PMA, were labeled for cell surface LRP1 and CRT followed by FACS. […] Activated PEM phagocytosis toward RBCs was tested in the presence of antibodies against SR-A, Fc receptor Cd16/32 (10 μg/mL of each), inhibitors against SR-B (BLT1, 5 μM), dectin (laminarin, 100 μg/mL), complement (heparin, 40 U/mL), and antibody against Cd11b (10 μg/mL). […] Data presented in each panel represent at least three independent experiments with n≥4, if applicable.
Ex vivo macrophage phagocytosis: Mouse spleens were harvested and minced in cold HBSS followed by passing through nylon meshes. The spleen cells in suspensions were collected by centrifugation followed by washing. After lysis of RBC, splenocytes were plated in cell culture dishes in DMEM with 10% FBS and cultured for 2 h followed by removal of non-adherent cells. The adherent cells, ˜70% being macrophages as determined by anti-F4/80 staining, were tested for phagocytosis. For phagocytosis of RBC or other tissue cells, targeted cells were labeled with CFSE prior to addition into the macrophage-containing wells. Macrophages and target cells, at a ratio of 1:5-10 for RBC or 1:1-2 for other cells, were co-incubated for 30 min at 37° C. followed by gently washing. Macrophage phagocytosis of target cells was then analyzed by fluorescence microscopy and/or by FACS. […] Alternatively, the freshly isolated splenocytes in suspension were incubated with CFSE-labeled RBC and other phagocytic targets for 30 min at 37° C. Macrophage phagocytosis was then determined by FACS after labeling macrophages with anti-F4/80. To test phagocytosis of apoptotic cells, B16 cells were irradiated by UV for 150 seconds at 50 J/m^2 strength. Apoptosis was analyzed at 2, 4, 6, 8 and 18 h post UV irradiation by labeling of the cells with anti-phosphatidylserine (PS) antibody (data not shown) or FITC-conjugated annexin V (data not shown). Cells that were confirmed to be apoptotic were trypsinized, labeled with CFSE, and then co-incubated with macrophages for 30 min at 37° C. After gentle washing, phagocytosis was analyzed by fluorescence microscopy and/or FACS. To test phagocytosis of bacteria and the fungal product zymosan, AlexaFluor-conjugated E.coli strain […] (2 μl suspension, ˜2 μg) or zymosan bioparticles (1 μl suspension, ˜2 μg) (both from Invitrogen) were incubated with macrophages for 30 min followed by washing and analyses. Similar procedures were performed to test phagocytosis of macrophages from various sources. […]

[2] = test system: splenic macrophages, PEMs and BMDMs; assay: Ex vivo macrophage phagocytosis toward RBCs and other self-cells after activation; format: cell-based, mouse; conditions: PEM; lack of the CD47-SIRPα-mediated inhibition
Protocol: FIGS. 3A-3H include data related to our experiments assaying macrophage phagocytosis ex vivo. FIGS. 3A and 3B show macrophage phagocytosis of RBCs. Freshly isolated splenic macrophages (MØ) and peritoneal macrophages (PEM) and in vitro-derived BMDM (bone marrow-derived macrophages) were tested for phagocytosis toward CFSE-labeled Cd47^+ or Cd47^− RBCs. […] FIGS. 3F and 3G illustrate LPS and IL-17-activated PEM phagocytosis toward splenocytes (FIG. 3F), B16, and EL4 (FIG. 3G). Error bars are ±SEM. **P<0.01, ***P<0.001 vs. no treatment controls. […] PEM lavaged without (ctl.) or with Brewer thioglycollate (3%, i.p.) elicitation was tested. Error bars are ±SEM. ***P<0.001 vs. control PEM. Data presented in each panel represent at least three independent experiments with n≥4, if applicable.
FIGS. 4A-4E include data related to our experiments on macrophage phagocytic plasticity. FIG. 4A is a panel of illustrative line graphs showing that IL-10 inhibits macrophage phagocytosis toward “self.” PEMs were treated with LPS and activating cytokines along with various concentrations of IL-10 before testing their ability to phagocytose RBCs. FIG. 4B illustrates the phagocytic plasticity of WT red pulp macrophages. […] Treatments of cultured macrophages with LPS and IL-17 re-elicited their phagocytosis toward RBCs. […] Error bars are ±SEM. ***P<0.001 vs. freshly isolated splenic macrophages. FIG. 4D includes microscopic images of RBC phagocytosis by LPS- and IL-17-treated splenic macrophages. […] WT PEMs treated with LPS or IL-17 were further treated with Cd47^+ RBCs or Cd47-AP (10 min, 37° C.) followed by cell lysis, SIRPα immunoprecipitation, and WB detection of SIRPα phosphorylation (SIRPα^pY) and SHP-1 association. Data presented in each panel represent at least three independent experiments with n≥4, if applicable.
Ex vivo macrophage phagocytosis: Mouse spleens were harvested and minced in cold HBSS followed by passing through nylon meshes. The spleen cells in suspensions were collected by centrifugation followed by washing. After lysis of RBC, splenocytes were plated in cell culture dishes in DMEM with 10% FBS and cultured for 2 h followed by removal of non-adherent cells. The adherent cells, ˜70% being macrophages as determined by anti-F4/80 staining, were tested for phagocytosis. For phagocytosis of RBC or other tissue cells, targeted cells were labeled with CFSE prior to addition into the macrophage-containing wells. Macrophages and target cells, at a ratio of 1:5-10 for RBC or 1:1-2 for other cells, were co-incubated for 30 min at 37° C. followed by gently washing. Macrophage phagocytosis of target cells was then analyzed by fluorescence microscopy and/or by FACS. To better recognize macrophages, macrophages in wells were labeled with an anti-F4/80 or an anti-CD11b antibody. Alternatively, the freshly isolated splenocytes in suspension were incubated with CFSE-labeled RBC and other phagocytic targets for 30 min at 37° C. Macrophage phagocytosis was then determined by FACS after labeling macrophages with anti-F4/80. To test phagocytosis of apoptotic cells, B16 cells were irradiated by UV for 150 seconds at 50 J/m^2 strength. Apoptosis was analyzed at 2, 4, 6, 8 and 18 h post UV irradiation by labeling of the cells with anti-phosphatidylserine (PS) antibody (data not shown) or FITC-conjugated annexin V (data not shown). Cells that were confirmed to be apoptotic were trypsinized, labeled with CFSE, and then co-incubated with macrophages for 30 min at 37° C. After gentle washing, phagocytosis was analyzed by fluorescence microscopy and/or FACS. To test phagocytosis of bacteria and the fungal product zymosan, AlexaFluor-conjugated E.coli strain […] (2 μl suspension, ˜2 μg) or zymosan bioparticles (1 μl suspension, ˜2 μg) (both from Invitrogen) were incubated with macrophages for 30 min followed by washing and analyses. Similar procedures were performed to test phagocytosis of macrophages from various sources. […]

[3] = test system: SIRPα^−/− and CD47^−/− mice; assay: Acute anemia and splenomegaly in mice deficient of CD47-SIRPα-mediated inhibition under inflammatory conditions; format: in vivo, mouse; conditions: SIRPα^−/− and CD47^−/− mice; zymosan 3 times every other day; IL-6 2×10 μg/kg i.v.; LPS 0.25 mg/kg i.p.; CFA s.c.
Source text: FIGS. 1A-1K illustrate our assessment of acute anemia in mice deficient of CD47-SIRPα-mediated inhibition under inflammatory conditions. FIG. 1A includes a schematic drawing of a wild type (WT) and targeted allele of SIRPα (“SIRPα”) and data related to the generation of SIRPα “knock out” (KO) mice. […] Western blot (WB) analysis confirmed the depletion of SIRPα (˜120 kDa) protein in bone marrow leukocytes from SIRPα^−/− mice. FIG. 1B includes a photograph of intestinal tissue and a line graph charting the change in body weight of mice in which colitis had been induced by treatment with 1% or 2% DSS. […] FIGS. 1C and 1D include data related to acute anemia and splenomegaly developed in SIRPα^−/− mice with colitis. WT mice and SIRPα^−/− mice treated with DSS (2% DSS for WT and 1% DSS for SIRPα^−/−) for 10 days were analyzed for the presence of […] (FIG. 1C) and the content of hemoglobin in peripheral blood (FIG. 1D). FIG. 1E includes a panel of photomicrographs in which hematoxylin and eosin (H&E) was used to stain sections of spleens from WT and SIRPα^−/− mice treated with 2% and 1% DSS for 10 days. The bar graph of FIG. 1E illustrates the hemoglobin content in the spleens of WT and SIRPα^−/− mice treated with water or DSS. FIG. 1F is a pair of line graphs showing the time course over which anemia developed in SIRPα^−/− mice when colitis was induced with DSS and the levels of IL-17 in the serum over that same period of time. FIG. 1G is a diagram showing that IL-17 neutralization ameliorates anemia and splenomegaly in SIRPα^−/− mice with colitis. An anti-IL-17 antibody (10 μg, i.v.) was given on days 6 and 8 (arrows) during DSS-induction of colitis. FIG. 1H is a diagram showing that IL-17-containing colitic serum induces acute anemia in SIRPα^−/− mice. Serum samples collected from healthy (Ctl.) and colitic WT mice (2% DSS, 10 d) were administered to healthy SIRPα^−/− mice (i.v., 3×, arrows) with or without an anti-IL-17 antibody. FIGS. 1I and 1J are illustrative graphs showing that IL-17 directly induces acute anemia and splenomegaly in SIRPα^−/− mice and Cd47^−/− mice. Healthy mice were given recombinant IL-17 (10 μg/kg, i.v.) on days 1 and 3 (arrows, FIG. 1J); anemia and splenomegaly were analyzed on day 5 (FIG. 1I) or in a time course manner (FIG. 1J). FIG. 1K includes diagrams showing that acute anemia and splenomegaly in SIRPα^−/− and Cd47^−/− mice under zymosan-peritonitis (3×, every other day), IL-6 administration ([…], i.v.), LPS (0.25 mg/kg, i.p.), and CFA (1×, s.c.) administrations. Error bars are ±SEM **P<0.01, ***P<0.001 vs. control or the beginning time point. Data presented in each panel represent at least three independent experiments with n≥4, if applicable.
Hemoglobin assay: To assay blood hemoglobin, 10 μl of whole blood were obtained from the tail vein followed by lysis in 1 ml distilled water. After centrifugation (13,000 rpm, 30 min), the hemoglobin-containing supernatants were collected and measured for the optical density at the wavelength of 540 nm.
Animal inflammation models: To induce peritonitis, mice (6-8 wk, 20-22 g) were intraperitoneally injected with 0.5 mg zymosan A (Sigma) in 0.5 ml sterile PBS followed by euthanasia at 2, 4, 6 and 8 hours. […] The colitic condition was then assessed by observing diarrhea, measuring body weight loss, increases of inflammatory cytokines, the shortage of the large intestine and intestinal tissue analyses (after euthanasia). […]

Molecule | LPS-induced PEM phagocytosis toward RBCs [1] | ability to induce macrophage phagocytosis toward self [2] | anemia and splenomegaly [3]
CCCCCCC1CCCC1=NNC(N)=S (centres unmarked) [BLT1] | failed to affect |  | 
heparin | failed to affect |  | 
laminarin | failed to affect |  | 
B1 |  | have the ability to induce macrophage phagocytosis toward self | induced the same result
